According to ChEMBL document CHEMBL5233284, “Design, synthesis and anticancer evaluation of 3-methyl-1H-indazole derivatives as novel selective bromodomain-containing protein 4 inhibitors” (Bioorg Med Chem, 2021):
Calls of active or inactive are those of the source. No cut-off for these calls is given here.

Key:
[1] = molecular target: T1, Bromodomain-containing protein 4 (Homo sapiens, UniProt O60885); settings: dose 200.0 µM, time 30-60 min
Description: Binding affinity to BRD4-BD1 (unknown origin) assessed as change in melting temperature at 200 uM incubated for 30 to 60 mins by SYPRO orange dye based thermal shift assay

MV4-11 [2] = assay: Antiproliferative activity against human MV4-11 cells assessed as inhibition of cell growth at 10 uM incubated for 96 to 120 hrs by celltiter glo assay relative to control; assay type: functional; settings: for inhibition at 10 µM: Homo sapiens, MV4-11, time 96-120 hrs
CWR22R [3] = assay: Antiproliferative activity against human 22Rv1 cells assessed as inhibition of cell growth at 10 uM incubated for 96 to 120 hrs by celltiter glo assay relative to control; assay type: functional; settings: for inhibition at 10 µM: Homo sapiens, 22Rv1, time 96-120 hrs
[4] = molecular target: T1, Bromodomain-containing protein 4; assay: Inhibition of BRD4-BD1 (unknown origin) using C-terminal biotinylated tetra-acetylated histone H4 peptide as substrate incubated for 2.5 hrs by alphascreen assay
MV4-11 [5] = assay: Antiproliferative activity against human MV4-11 cells assessed as inhibition of cell growth incubated for 96 to 120 hrs by celltiter glo assay; assay type: functional, cell-based
CWR22R [6] = assay: Antiproliferative activity against human 22Rv1 cells assessed as inhibition of cell growth incubated for 96 to 120 hrs by celltiter glo assay; assay type: functional, cell-based
[7] = molecular target: SWI/SNF-related matrix-associated actin-dependent regulator of chromatin subfamily A member 2 (Homo sapiens) (UniProt P51531); assay: Binding affinity to SMARCA2A (unknown origin) assessed as change in melting temperature at 200 uM incubated for 30 to 60 mins by SYPRO orange dye based thermal shift assay; settings: time 30-60 min
Chain of SWI/SNF-related matrix-associated actin-dependent regulator of chromatin subfamily A member 2 (Homo sapiens) (P51531 whole entry, the tested form may be a part): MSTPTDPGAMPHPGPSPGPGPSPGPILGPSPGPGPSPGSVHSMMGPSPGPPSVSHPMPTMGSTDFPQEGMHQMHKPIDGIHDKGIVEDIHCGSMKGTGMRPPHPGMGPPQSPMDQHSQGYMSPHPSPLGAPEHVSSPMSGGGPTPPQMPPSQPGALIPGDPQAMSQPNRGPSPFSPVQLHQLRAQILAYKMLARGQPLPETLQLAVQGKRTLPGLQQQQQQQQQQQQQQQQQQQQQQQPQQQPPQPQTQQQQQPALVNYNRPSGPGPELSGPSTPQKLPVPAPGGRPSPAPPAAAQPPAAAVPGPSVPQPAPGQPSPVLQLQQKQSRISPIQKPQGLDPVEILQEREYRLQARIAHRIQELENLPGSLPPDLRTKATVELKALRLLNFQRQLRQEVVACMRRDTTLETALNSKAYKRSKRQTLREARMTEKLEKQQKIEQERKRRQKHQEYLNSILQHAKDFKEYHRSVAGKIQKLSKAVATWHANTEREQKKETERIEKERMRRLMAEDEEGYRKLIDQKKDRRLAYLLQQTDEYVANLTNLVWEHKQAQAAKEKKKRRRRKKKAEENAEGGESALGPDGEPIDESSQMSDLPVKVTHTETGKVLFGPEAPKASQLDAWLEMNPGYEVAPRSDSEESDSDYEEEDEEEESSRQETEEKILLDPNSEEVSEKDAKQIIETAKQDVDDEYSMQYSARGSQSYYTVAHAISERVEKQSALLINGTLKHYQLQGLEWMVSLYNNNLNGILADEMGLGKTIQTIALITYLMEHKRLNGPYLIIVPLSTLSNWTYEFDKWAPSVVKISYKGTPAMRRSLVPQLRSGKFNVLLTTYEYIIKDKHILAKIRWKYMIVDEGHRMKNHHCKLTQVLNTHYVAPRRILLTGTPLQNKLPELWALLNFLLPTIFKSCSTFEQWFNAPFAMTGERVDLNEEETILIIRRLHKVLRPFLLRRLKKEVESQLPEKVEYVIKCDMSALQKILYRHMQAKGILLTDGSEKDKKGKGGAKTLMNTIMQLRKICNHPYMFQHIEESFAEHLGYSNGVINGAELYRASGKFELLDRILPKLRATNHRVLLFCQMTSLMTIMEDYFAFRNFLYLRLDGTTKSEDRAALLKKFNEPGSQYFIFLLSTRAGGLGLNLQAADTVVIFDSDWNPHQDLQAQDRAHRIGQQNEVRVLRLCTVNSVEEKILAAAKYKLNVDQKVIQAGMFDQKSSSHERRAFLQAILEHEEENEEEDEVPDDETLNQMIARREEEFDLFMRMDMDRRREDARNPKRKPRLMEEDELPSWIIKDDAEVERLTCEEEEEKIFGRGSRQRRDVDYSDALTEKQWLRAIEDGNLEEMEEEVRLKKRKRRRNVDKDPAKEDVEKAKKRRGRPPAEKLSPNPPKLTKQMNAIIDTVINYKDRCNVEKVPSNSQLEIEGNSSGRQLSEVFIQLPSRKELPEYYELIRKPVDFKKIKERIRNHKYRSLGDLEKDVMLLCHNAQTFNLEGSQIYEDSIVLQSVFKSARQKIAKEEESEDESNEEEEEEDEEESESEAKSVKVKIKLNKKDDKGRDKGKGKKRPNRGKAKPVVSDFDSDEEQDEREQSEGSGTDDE

[8] = molecular target: Bromodomain adjacent to zinc finger domain protein 2B (Homo sapiens) (UniProt Q9UIF8); assay: Binding affinity to BAZ2B (unknown origin) assessed as change in melting temperature at 200 uM incubated for 30 to 60 mins by SYPRO orange dye based thermal shift assay; settings: time 30-60 min
[9] = molecular target: Histone acetyltransferase p300 (Homo sapiens) (UniProt Q09472); assay: Binding affinity to EP300 (unknown origin) assessed as change in melting temperature at 200 uM incubated for 30 to 60 mins by SYPRO orange dye based thermal shift assay; settings: time 30-60 min
[10] = molecular target: Histone acetyltransferase KAT2B (Homo sapiens) (UniProt Q92831); assay: Binding affinity to PCAF (unknown origin) assessed as change in melting temperature at 200 uM incubated for 30 to 60 mins by SYPRO orange dye based thermal shift assay; settings: time 30-60 min
Chain of Histone acetyltransferase KAT2B (Homo sapiens) (Q92831 whole entry, looked up): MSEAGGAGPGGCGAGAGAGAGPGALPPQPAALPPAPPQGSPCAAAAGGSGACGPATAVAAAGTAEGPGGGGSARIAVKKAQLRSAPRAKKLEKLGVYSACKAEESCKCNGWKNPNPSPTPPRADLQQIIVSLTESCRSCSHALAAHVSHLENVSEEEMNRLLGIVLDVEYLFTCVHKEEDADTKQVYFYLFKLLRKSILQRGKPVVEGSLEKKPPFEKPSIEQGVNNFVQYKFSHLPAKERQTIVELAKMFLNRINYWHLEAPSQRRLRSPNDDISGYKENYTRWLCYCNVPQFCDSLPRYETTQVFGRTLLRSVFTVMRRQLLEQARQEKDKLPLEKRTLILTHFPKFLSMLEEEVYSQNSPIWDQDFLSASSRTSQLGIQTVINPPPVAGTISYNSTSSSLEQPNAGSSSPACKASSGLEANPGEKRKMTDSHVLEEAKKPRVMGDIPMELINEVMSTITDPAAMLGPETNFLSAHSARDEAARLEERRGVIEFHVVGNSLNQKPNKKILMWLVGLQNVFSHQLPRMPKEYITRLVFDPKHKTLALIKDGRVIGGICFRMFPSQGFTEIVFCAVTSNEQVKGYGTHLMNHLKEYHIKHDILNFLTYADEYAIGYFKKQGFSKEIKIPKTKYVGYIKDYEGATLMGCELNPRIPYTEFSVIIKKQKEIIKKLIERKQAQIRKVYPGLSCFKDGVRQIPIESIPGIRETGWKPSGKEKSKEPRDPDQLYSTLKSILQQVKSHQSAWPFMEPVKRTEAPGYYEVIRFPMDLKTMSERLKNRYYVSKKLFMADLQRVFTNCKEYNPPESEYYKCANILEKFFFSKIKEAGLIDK

[11] = molecular target: T1, Bromodomain-containing protein 4; assay: Inhibition of BRD4 BD1 in human MV4-11 cells assessed as inhibition of c-myc protein expression at 20 uM incubated for 48 hrs by Western blot analysis; assay type: cell-based
[12] = molecular target: Chromatin remodeling regulator CECR2 (Homo sapiens) (UniProt Q9BXF3); assay: Binding affinity to CECR2 (unknown origin) assessed as change in melting temperature at 200 uM incubated for 30 to 60 mins by SYPRO orange dye based thermal shift assay; settings: time 30-60 min
Chain of Chromatin remodeling regulator CECR2 (Homo sapiens) (Q9BXF3 whole entry, looked up): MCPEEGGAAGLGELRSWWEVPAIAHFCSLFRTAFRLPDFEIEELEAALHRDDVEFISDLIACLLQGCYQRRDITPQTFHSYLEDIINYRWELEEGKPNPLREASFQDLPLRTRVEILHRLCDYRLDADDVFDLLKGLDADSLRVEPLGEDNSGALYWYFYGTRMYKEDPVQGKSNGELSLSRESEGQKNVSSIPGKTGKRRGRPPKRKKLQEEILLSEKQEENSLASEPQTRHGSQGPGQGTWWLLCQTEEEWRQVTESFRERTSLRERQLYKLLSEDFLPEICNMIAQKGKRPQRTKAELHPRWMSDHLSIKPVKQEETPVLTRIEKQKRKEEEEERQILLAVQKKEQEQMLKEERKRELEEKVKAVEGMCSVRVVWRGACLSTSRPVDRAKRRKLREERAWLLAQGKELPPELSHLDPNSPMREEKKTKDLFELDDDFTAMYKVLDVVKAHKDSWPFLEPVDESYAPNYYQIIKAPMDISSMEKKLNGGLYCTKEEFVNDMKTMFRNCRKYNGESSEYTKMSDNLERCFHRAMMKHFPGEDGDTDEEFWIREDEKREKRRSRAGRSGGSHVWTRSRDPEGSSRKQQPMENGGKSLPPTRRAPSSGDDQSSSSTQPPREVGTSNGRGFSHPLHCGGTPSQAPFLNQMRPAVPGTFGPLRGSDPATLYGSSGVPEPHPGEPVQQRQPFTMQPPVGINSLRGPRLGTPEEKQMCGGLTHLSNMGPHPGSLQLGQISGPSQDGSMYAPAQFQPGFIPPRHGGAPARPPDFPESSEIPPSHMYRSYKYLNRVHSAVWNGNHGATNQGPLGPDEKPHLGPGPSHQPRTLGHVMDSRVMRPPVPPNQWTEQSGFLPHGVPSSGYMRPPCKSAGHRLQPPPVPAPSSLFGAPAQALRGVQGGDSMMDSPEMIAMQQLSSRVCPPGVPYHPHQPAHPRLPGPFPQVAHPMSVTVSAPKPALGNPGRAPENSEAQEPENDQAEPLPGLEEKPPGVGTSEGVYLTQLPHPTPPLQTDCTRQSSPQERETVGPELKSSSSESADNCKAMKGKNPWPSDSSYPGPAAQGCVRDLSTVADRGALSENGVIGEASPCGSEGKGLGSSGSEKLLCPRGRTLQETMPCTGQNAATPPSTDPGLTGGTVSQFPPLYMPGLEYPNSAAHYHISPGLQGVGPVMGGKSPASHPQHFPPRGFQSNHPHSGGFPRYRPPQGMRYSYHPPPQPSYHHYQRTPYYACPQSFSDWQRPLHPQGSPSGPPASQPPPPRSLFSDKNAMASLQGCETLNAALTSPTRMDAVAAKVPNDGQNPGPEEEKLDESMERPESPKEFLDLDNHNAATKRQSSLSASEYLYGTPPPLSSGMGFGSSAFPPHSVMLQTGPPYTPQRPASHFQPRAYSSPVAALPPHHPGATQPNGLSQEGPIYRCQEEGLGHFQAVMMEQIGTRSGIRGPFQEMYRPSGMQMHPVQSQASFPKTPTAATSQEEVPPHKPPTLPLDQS

[13] = molecular target: CREB-binding protein (Homo sapiens) (UniProt Q92793); assay: Binding affinity to CBP (unknown origin) assessed as change in melting temperature at 200 uM incubated for 30 to 60 mins by SYPRO orange dye based thermal shift assay; settings: time 30-60 min
[14] = molecular target: Bromodomain-containing protein 2 (Homo sapiens) (UniProt P25440); assay: Binding affinity to BRD2 BD1 (unknown origin) assessed as change in melting temperature at 200 uM incubated for 30 to 60 mins by SYPRO orange dye based thermal shift assay; settings: time 30-60 min
[15] = molecular target: Bromodomain-containing protein 3 (Homo sapiens) (UniProt Q15059); assay: Binding affinity to BRD3 BD1 (unknown origin) assessed as change in melting temperature at 200 uM incubated for 30 to 60 mins by SYPRO orange dye based thermal shift assay; settings: time 30-60 min
Chain of Bromodomain-containing protein 3 (Homo sapiens) (Q15059 2-726 limits assumed): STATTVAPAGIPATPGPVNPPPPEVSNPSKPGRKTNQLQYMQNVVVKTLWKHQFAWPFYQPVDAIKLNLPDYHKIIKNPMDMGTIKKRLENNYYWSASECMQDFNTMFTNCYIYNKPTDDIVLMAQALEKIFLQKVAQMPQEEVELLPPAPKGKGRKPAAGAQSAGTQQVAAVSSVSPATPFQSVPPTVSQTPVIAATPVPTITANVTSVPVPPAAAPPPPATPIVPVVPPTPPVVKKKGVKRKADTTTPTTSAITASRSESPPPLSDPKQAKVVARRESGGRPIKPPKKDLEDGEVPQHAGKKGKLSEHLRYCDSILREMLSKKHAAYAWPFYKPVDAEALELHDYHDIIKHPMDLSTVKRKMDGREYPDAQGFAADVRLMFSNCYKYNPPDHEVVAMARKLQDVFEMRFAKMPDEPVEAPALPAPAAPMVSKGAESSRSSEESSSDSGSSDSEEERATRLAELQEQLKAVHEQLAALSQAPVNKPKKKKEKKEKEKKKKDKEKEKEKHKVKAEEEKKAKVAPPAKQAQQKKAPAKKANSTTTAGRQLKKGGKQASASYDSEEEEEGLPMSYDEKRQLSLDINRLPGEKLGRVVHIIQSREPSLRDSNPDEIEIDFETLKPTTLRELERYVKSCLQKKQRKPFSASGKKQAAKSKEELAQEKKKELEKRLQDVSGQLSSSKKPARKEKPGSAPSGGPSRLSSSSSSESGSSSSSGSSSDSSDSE

[16] = molecular target: T1, Bromodomain-containing protein 4; assay: Inhibition of BRD4-BD1 (unknown origin) at 60 uM relative to control

Cc1n[nH]c2ccc(-c3nc4cnc(N5CCN(C)CC5)cn4c3Nc3ccc(I)cc3)cc12
ΔTm [1]: 4.5 °C
inhibition at 10 µM (MV4-11 [2]): 0%

Cc1n[nH]c2ccc(-c3nc4cnc(N5CCN(C)CC5)cn4c3Nc3ccc(Br)cc3)cc12
inhibition at 10 µM (CWR22R [3]): 11.7%
ΔTm [1]: 7.2 °C
IC50 [4]: 6.94 µM
IC50 (MV4-11 [5]): 2.6 µM
inhibition at 10 µM (MV4-11 [2]): 83%

Cc1n[nH]c2ccc(-c3nc4cnc(N5CCOCC5)cn4c3Nc3ccccc3)cc12
ΔTm [1]: 6.1 °C
IC50 (CWR22R [6]): 38.2 µM
IC50 [4]: 3.79 µM
inhibition at 10 µM (MV4-11 [2]): 0%

Cc1n[nH]c2ccc(-c3nc4cnc(N5CCOCC5)cn4c3Cc3ccc(Cl)cc3)cc12
ΔTm [1]: 6.6 °C
inhibition at 10 µM (MV4-11 [2]): 0%

Cc1n[nH]c2ccc(-c3nc4cnc(N5CCN(C)CC5)cn4c3Nc3ccccc3Cl)cc12
ΔTm [1]: 3.6 °C
inhibition at 10 µM (MV4-11 [2]): 58.1%

Cc1n[nH]c2ccc(-c3nc4cnc(N5CCN(C)CC5)cn4c3Nc3cccc(Cl)c3)cc12
ΔTm [1]: 6.3 °C
inhibition at 10 µM (MV4-11 [2]): 0%

COc1ccc(Nc2c(-c3ccc4[nH]nc(C)c4c3)nc3cnc(N4CCN(C)CC4)cn23)cc1OC
inhibition at 10 µM (CWR22R [3]): 0%
ΔTm [1]: 6.9 °C
IC50 [4]: 12.7 µM
inhibition at 10 µM (MV4-11 [2]): 6.27%

Cc1n[nH]c2ccc(-c3nc4cnc(N5CCN(C)CC5)cn4c3Nc3ccc(F)c(Cl)c3)cc12
inhibition at 10 µM (CWR22R [3]): 0.82%
ΔTm [1]: 6 °C
IC50 (CWR22R [6]): 14 µM
IC50 [4]: 5.81 µM
IC50 (MV4-11 [5]): 2.85 µM
inhibition at 10 µM (MV4-11 [2]): 84.1%

Cc1sc2c(c1C)C(c1ccc(Cl)cc1)=N[C@@H](CC(=O)OC(C)(C)C)c1nnc(C)n1-2
ΔTm [7]: -0.5 °C
inhibition (INH) (CWR22R [3]; time 96-120 hrs): 82.88%
IC50 (CWR22R [6]): 0.033 µM
IC50 (MV4-11 [5]): 0.017 µM
inhibition (INH) (MV4-11 [2]; time 96-120 hrs): 90.01%

Cc1n[nH]c2ccc(-c3nc4cnc(N5CCN(C)CC5)cn4c3Nc3ccc(Cl)cc3F)cc12
ΔTm [1]: 4.5 °C
IC50 (CWR22R [6]): 14.1 µM
IC50 [4]: 6.78 µM
IC50 (MV4-11 [5]): 10.3 µM
inhibition at 10 µM (MV4-11 [2]): 0%

COc1ccc(Nc2c(-c3ccc4[nH]nc(C)c4c3)nc3cnc(N4CCOCC4)cn23)cc1
inhibition at 10 µM (CWR22R [3]): 1.2%
ΔTm [1]: 6.9 °C
IC50 [4]: 5.15 µM
inhibition at 10 µM (MV4-11 [2]): 11.5%

Cc1n[nH]c2ccc(-c3nc4cnc(N5CCN(C)CC5)cn4c3Nc3ccc(F)cc3)cc12
ΔTm [1]: 6.5 °C
IC50 (CWR22R [6]): 33.6 µM
IC50 [4]: 4.17 µM
IC50 (MV4-11 [5]): 32.3 µM
inhibition at 10 µM (MV4-11 [2]): 0%

Cc1n[nH]c2ccc(-c3nc4cnc(N5CCN(C)CC5)cn4c3Nc3ccc(F)cc3Br)cc12
inhibition at 10 µM (CWR22R [3]): 4.41%
ΔTm [1]: 5.1 °C
IC50 [4]: 7.48 µM
IC50 (MV4-11 [5]): 3.83 µM
inhibition at 10 µM (MV4-11 [2]): 82.4%

Cc1n[nH]c2ccc(-c3nc4cnc(N5CCN(C)CC5)cn4c3Nc3ccc(Cl)cc3)cc12
inhibition at 10 µM (CWR22R [3]): 8.11%
ΔTm [1]: 5 °C
IC50 [4]: 6.35 µM
IC50 (MV4-11 [5]): 3.51 µM
inhibition at 10 µM (MV4-11 [2]): 83.7%

Cc1n[nH]c2ccc(-c3nc4cnc(N5CCN(C)CC5)cn4c3Nc3cccc(F)c3)cc12
inhibition at 10 µM (CWR22R [3]): 5.41%
ΔTm [1]: 6.9 °C
IC50 [4]: 14.3 µM
inhibition at 10 µM (MV4-11 [2]): 18.5%

Cc1n[nH]c2ccc(-c3nc4cnc(N5CCOCC5)cn4c3Nc3ccc(Cl)cc3)cc12
ΔTm [7]: 0 °C
ΔTm [8]: -2 °C
ΔTm [9]: -1.5 °C
inhibition at 10 µM (CWR22R [3]): 13.8%
ΔTm [1]: 7.5 °C
IC50 (CWR22R [6]): 15.8 µM
IC50 [4]: 3.55 µM
ΔTm [10]: -1.5 °C
inhibition [11]: Active
ΔTm [12]: 0 °C
ΔTm [13]: -1 °C
IC50 (MV4-11 [5]): 3.7 µM
ΔTm [14]: 1 °C
inhibition at 10 µM (MV4-11 [2]): 84%
ΔTm [15]: 2.3 °C

Cc1n[nH]c2ccc(-c3nc4cnc(N5CCN(C)CC5)cn4c3Nc3ccc(Br)cc3Cl)cc12
ΔTm [1]: 2.7 °C
IC50 (MV4-11 [5]): 9.22 µM
inhibition at 10 µM (MV4-11 [2]): 70.5%

Cc1cc(Br)ccc1Nc1c(-c2ccc3[nH]nc(C)c3c2)nc2cnc(N3CCN(C)CC3)cn12
ΔTm [1]: 3.7 °C
IC50 (CWR22R [6]): 6.51 µM
IC50 (MV4-11 [5]): 10.8 µM
inhibition at 10 µM (MV4-11 [2]): 59.4%

Cc1n[nH]c2ccc(-c3nc4cnc(N5CCC(C)CC5)cn4c3Nc3ccc(Cl)cc3)cc12
inhibition at 10 µM (CWR22R [3]): 12.6%
ΔTm [1]: 2.1 °C
IC50 [4]: 20.4 µM
inhibition at 10 µM (MV4-11 [2]): 27.9%

Cc1n[nH]c2ccc(-c3nc4cnc(N5CCN(C)CC5)cn4c3Nc3cc(Cl)ccc3Cl)cc12
inhibition at 10 µM (CWR22R [3]): 3.8%
ΔTm [1]: 3.9 °C
IC50 [4]: 3.61 µM
inhibition at 10 µM (MV4-11 [2]): 23.8%

Cc1n[nH]c2ccc(-c3nc4cnc(N5CCN(C)CC5)cn4c3Nc3ccccc3)cc12
ΔTm [1]: 5 °C
IC50 [4]: 6.1 µM
inhibition at 10 µM (MV4-11 [2]): 0%

COc1ccc(Nc2c(-c3ccc4[nH]nc(C)c4c3)nc3cnc(N4CCN(C)CC4)cn23)cc1
inhibition at 10 µM (CWR22R [3]): 0%
ΔTm [1]: 5.3 °C
IC50 [4]: 20.5 µM
inhibition at 10 µM (MV4-11 [2]): 3.32%

Cc1ccc(C)c(Nc2c(-c3ccc4[nH]nc(C)c4c3)nc3cnc(N4CCN(C)CC4)cn23)c1
ΔTm [1]: 5.3 °C
inhibition at 10 µM (MV4-11 [2]): 0%

Cc1n[nH]c2ccc(-c3nc4cnc(N5CCN(C)CC5)cn4c3Nc3ccc(Cl)cc3Cl)cc12
inhibition at 10 µM (CWR22R [3]): 9.53%
ΔTm [1]: 2 °C
IC50 [4]: 16 µM
IC50 (MV4-11 [5]): 4.72 µM
inhibition at 10 µM (MV4-11 [2]): 78.8%

COc1cc(-c2nc3cnccn3c2Nc2ccccc2)ccc1O
inhibition [16]: 40%

Cc1n[nH]c2ccc(-c3nc4cnc(N5CCOCC5)cn4c3Nc3ccc(Br)cc3)cc12
inhibition at 10 µM (CWR22R [3]): 10.1%
ΔTm [1]: 6.9 °C
IC50 [4]: 4.69 µM
inhibition at 10 µM (MV4-11 [2]): 45.9%

Cc1n[nH]c2ccc(-c3nc4cnc(N5CCN(C)CC5)cn4c3Nc3ccccc3F)cc12
inhibition at 10 µM (CWR22R [3]): 0%
ΔTm [1]: 6.9 °C
IC50 [4]: 9.89 µM
inhibition at 10 µM (MV4-11 [2]): 0%
